Read-outs that look alike come from different tables or passages of the source. Each block holds one molecule with its values, some of them ahead of it.
Key:
bile canaliculi = experiment: Disruption of canaliculi, CDFDA staining (Example 3); format: cell-based, human; conditions: 5 uM CDFDA with 10 uM LatA, 20 min
Method: In the second method, the cultures were exposed to buffer containing latranculin A (LatA). The LatA functions to disrupt microfilament organization, a key step in tight junction formation, which allows bile present in the canaliculi to escape. Cells were first washed twice in HBSS buffer with Ca+. Cells were then incubated with 5 uM CDFDA in HBSS buffer with Ca+ and 10 uM LatA for 20 min. Cells were then washed two times in HBSS buffer with Ca+.

in vitro [1] = conditions: rat, hepatocytes
Method: (§1) The single well method of assessing biliary clearance of the invention was used.
(§2) The media was then removed (collection #1) and stored for analysis of remaining compound. […] At the end of the incubation period the culture media was collected (collection #4). The cells were then exposed to deionized water which functions to disrupt the cellular membrane and release the compound accumulated in the cellular compartment (collection #5). Because any compound present in the canaliculi was already collected in collection #4, collection #5 contains any compound present in the cell but not including any present in the canaliculi. […] The data is presented in FIG. 9-13 using the same format as used in FIGS. 4-8.
(§3) Equation 2 was used to calculate the BEI for each compound in this system.

in vitro [2] = conditions: hepatocytes
Method: as §1
(§4) A coculture was exposed to each tested compound in culture media at the indicated concentration for 20 minutes. The media was then removed (collection #1) and stored for analysis of remaining compound. The cultures were washed twice with buffer solution (collections #2 and #3) and each wash solution was stored for analysis of remaining taurcholate. […] This releases taurcholate accumulated in the bile of the canaliculi. At the end of the incubation period the culture media was collected (collection #4). The cells were then exposed to deionized water which functions to disrupt the cellular membrane and release the compound accumulated in the cellular compartment (collection #5). Because any compound present in the canaliculi was already collected in collection #4, collection #5 contains any compound present in the cell but not including any present in the canaliculi.
(§5) In teach figure the measured amount of compound in bile and the measured amount of compound in the cytoplasm are presented together as two parts of a single bar on the left side of the figure. The measured value for the bile is also shown as a bar on the right side of the figure. Comparing the height of the right bar (bile) to the height of the composite left bar (total of cytoplasm+bile) allows visulation of the portion of the compound that accumulated in the bile. […] Equation 2 was used to calculate the BEI for each compound in this system. The data were used to calculate the Biliary Clearance (Equation 1) and BEI (Equation 2) for each tested compound.

[3] = system: cryopreserved human hepatocytes in sandwich culture; conditions: cited from earlier work
cultured rat hepatocytes = experiment: in vitro
Method: as §1, §2, §3

[4] = system: cultured human hepatocytes; experiment: in vitro
Method: as §1, §4, §5

[5] = Lundquist (2014); cited from earlier work
[6] = system: primary human hepatocytes grown in a hepatocyte-stromal cell coculture
Method: (§6) Accumulation in the bile and accumulation in the cell were measured separately in a single well of a coculture plate. The measured values for bile accumulation and cell accumulation are shown as separately shaded portions of a single bar. The error bars represent a single standard deviation.
as §6, with “FIG. 18 compares the results of three independent experiments measuring biliary uptake of pravastatin by primary human hepatocytes grown in a hepatocyte-stromal cell coculture. Accumulation” for “Accumulation”

[7] = Bi et al. (2006), two culture method

SMILES: C/C1=C/C(=O)O[C@@H]2C[C@@H](CC[C@H](C)/C=C\C=C\CC1)O[C@@](O)([C@@H]1CSC(=O)N1)C2 [LatA, latrunculin A]
CDA staining of canaliculi (bile canaliculi): no CDA staining was apparent

SMILES: C[C@H]1O[C@@H](O[C@H]2[C@@H](O)C[C@H](O[C@H]3[C@@H](O)C[C@H](O[C@H]4CC[C@@]5(C)[C@H](CC[C@@H]6[C@@H]5C[C@@H](O)[C@]5(C)[C@@H](C7=CC(=O)OC7)CC[C@]65O)C4)O[C@@H]3C)O[C@@H]2C)C[C@H](O)[C@@H]1O [digoxin]
microsomal CLint (in vitro [1]): 0.31 ± 0.02 µL/min/mg | microsomal CLint (in vitro [2]; human): 0.4 µL/min/mg | Uptake Rate [3, 7]: 0.7-1.5 pmol/min/mg protein

SMILES: C[C@H](CCC(=O)NCCS(=O)(=O)O)[C@H]1CC[C@H]2[C@@H]3[C@H](O)C[C@@H]4C[C@H](O)CC[C@]4(C)[C@H]3C[C@H](O)[C@]12C [taurocholate, taurocholic acid]
Bile accumulation, Mean ([6]; Exp. 1): 541.90 | Bile accumulation, Mean ([6]; Exp. 2): 556.08 | Bile accumulation, Mean ([6]; Exp. 3): 543.31 | BEI (cultured rat hepatocytes; rat hepatocyte coculture, compound 2 uM (pravastatin 5 uM), 20 min, latrunculin 5 uM 30 min): 60% | Rat In Vitro PK Predicted CLbiliary (cultured rat hepatocytes; scaled from Clint,bile with 200 mg protein/g liver and 40 g liver/kg): 67.1 ± 4.8 mL/min/kg | microsomal CLint (in vitro [2]): 23 µL/min/mg

More lines, main results first:

Rat In Vitro PK Intrinsic CLint, biliary (cultured rat hepatocytes; rat, hepatocytes): 2.7 ± 0.1 μl/min/mg protein | microsomal CLint [4]: 0.3 µL/min/mg
SMILES: C[C@]12CC[C@@H]3c4ccc(O)cc4CC[C@H]3[C@@H]1CC[C@@H]2O[C@@H]1O[C@H](C(=O)O)[C@@H](O)[C@H](O)[C@H]1O [estradiol-glucuronide]
Biliary Excretion Index (BEI) [3, 7]: 37% | Uptake Rate [3]: 2.2 pmol/min/mg protein | microsomal CLint [3]: 1.8 µL/min/mg

microsomal CLint (in vitro [1]): 0.29 ± 0.02 µL/min/mg | microsomal CLint (in vitro [2]; human): 0.38 µL/min/mg
SMILES: CC[C@H](C)C(=O)O[C@H]1C[C@H](O)C=C2C=C[C@H](C)[C@H](CC[C@@H](O)C[C@@H](O)CC(=O)O)[C@H]21 [pravastatin]

microsomal CLint (in vitro [1]): 3.5 ± 0.3 µL/min/mg | Fold Difference (cultured rat hepatocytes; rat): 0.6 | microsomal CLint (in vitro [2]; human): 6 µL/min/mg
SMILES: CC(C)c1nc(N(C)S(C)(=O)=O)nc(-c2ccc(F)cc2)c1/C=C/[C@@H](O)C[C@@H](O)CC(=O)O [rosuvastatin]
Rat In Vivo PK In Vivo CLbiliary [5]: 48.0 ± 10.8 mL/min/kg | Biliary Excretion Index (BEI) [3, 7]: 43-58% | Uptake Rate [3, 7]: 15-26 pmol/min/mg protein

From US20160061820A1, “IN VITRO BILIARY EXCRETION ASSAY” (HUREL CORPORATION, priority 2014, published 2016)
